EP0359454B1, “CC-1065 analogs having two CPI subunits” (PHARMACIA & UPJOHN COMPANY, priority 1988, dated 1990)
Values after ≈ are worked out from the molar mass of the structure shown.

Assays:
L1210 leukemia cells = test: In vitro L1210 cell growth inhibition; type: cell-based, murine; conditions: Mus musculus, concentration of drug which inhibits cell growth 50%, read-out: ID50 (the source's name)
Excerpt: (§1) Table 3 presents data comparing [S-(R*,R*)]-6,6′-[carbonylbis(imino-1H-indole-5,2-dicarbonyl)]bis[8-chloromethyl)-3,6,7,8-tetrahydro-1-methyl-benzo[1,2-b:4,3-b′]dipyrrol-4-ol (Compound 1) with (7bR)-N-[2-[(4,5,8,8a-tetrahydro-7-methyl-4-oxocyclopropa-[C]pyrrolo[3,2-e]indol-2(1H)0yl)carbonyl]-1H-indol-5-yl]-2-benzofurancarboxamide (U-73,975) in the other murine systems where the compounds have been run jointly.

L-1210 Leukemia = test: L-1210 leukemia in vivo, IV drug vs IP tumor, dosed on day 1; design: species or system Male BDF1 mice; conditions: IV drug vs IP tumor, dosed on day 1; for Best T/C: T/C = median survival treated/control x 100, each value at the dose (1-600 µg/kg); for cures: animals surviving 30 days are considered cured, at the dose (µg/kg)
Excerpt: as §1
The results set forth in Tables 1 and 4 were obtained using standard well known procedures (In Vivo Cancer, Models, NIH Publication No. 84-2635, 1984).
T/C refers to median life span of treated mice divided by median life span of control mice times 100.

In the case of `Cc1c[nH]c2c1C13CC1CN(C(=O)c1cc4cc(NC(=O)Nc5ccc6[nH]c(C(=O)N7CC8CC89C7=CC(=O)c7[nH]cc(C)c79)cc6c5)ccc4[nH]1)C3=CC2=O` (stereo not drawn) [Compound 2, [7bR-[2(7′bR*,8′aS*), 7bR*,8aS*]]-2,2′-[carbonylbis(imino-1H-indole-5,2-dicarbonyl)]bis[1,2,8,8a-tetrahydro-7-methyl-cyclopropa(c)pyrrolo[3,2-e]indol-4(5H)-one], the IC50 (L1210 leukemia cells) is reported as 0.001 ng/mL (≈ 0.00135 nM) and the “Best T/C” value (L-1210 Leukemia) is reported as 169.

`Cc1c[nH]c2c(O)cc3c(c12)[C@H](CCl)CN3C(=O)c1cc2cc(NC(=O)C(=O)Nc3ccc4[nH]c(C(=O)N5C[C@H](CCl)c6c5cc(O)c5[nH]cc(C)c65)cc4c3)ccc2[nH]1` [Compound 3, (R*,S*)-N,N′-bis[2-[[1-(chloromethyl)-1,6-dihydro-5-hydroxy-8-methylbenzo[1,2-b:4,3-b′]dipyrrol-3(2H)-yl]carbonyl]-1H-indol-5-yl]-ethanediamide] was tested, and the IC50 (L1210 leukemia cells) was 0.009 ng/mL (≈ 0.0107 nM) and the “Best T/C” value (L-1210 Leukemia) was 106.

For `Cc1c[nH]c2c(O)cc3c(c12)[C@H](CCl)CN3C(=O)c1ccc(C(=O)N2C[C@@H](CCl)c3c2cc(O)c2[nH]cc(C)c32)[nH]1` [Compound 4, [S-(R*,R*)]-6,6′-(1H-pyrrole-2,5-diyldicarbonyl)bis[8-(chloromethyl)-3,6,7,8-tertrahydro-1-methyl-benzo[1,2-b:4,3-b′-]dipyrrol-4-ol], the IC50 (L1210 leukemia cells) was 0.004 ng/mL (≈ 0.00675 nM) and the “Best T/C” value (L-1210 Leukemia) was 156.

`Cc1c[nH]c2c(O)cc3c(c12)[C@H](CCl)CN3C(=O)c1ccc(C(=O)N2C[C@@H](CCl)c3c2cc(O)c2[nH]cc(C)c32)o1` [Compound 5, [S-(R*,R*)]-6,6′-(2,5-furandiyldicarbonyl)bis[8-(chloromethyl)-3,6,7,8-tertrahydro-1-methyl-benzo[1,2-b:4,3′b′]dipyrrol-4-ol] was tested, and the IC50 (L1210 leukemia cells) was 0.01 ng/mL (≈ 0.0169 nM) and the “Best T/C” value (L-1210 Leukemia) was 156.

`Cc1c[nH]c2c(O)cc3c(c12)[C@H](CCl)CN3C(=O)c1cc2cc(NC(=O)c3ccc(C(=O)Nc4ccc5[nH]c(C(=O)N6C[C@@H](CCl)c7c6cc(O)c6[nH]cc(C)c76)cc5c4)o3)ccc2[nH]1` [Compound 6, [S-(R*,R*]-N,N′-bis[2-[[1-(chloromethyl)-1,6-dihydro-5-hydroxy-8-methylbenzo[1,2-b:4,3-b′]dipyrrol-3(2H)-yl]carbonyl]-1H-indol-5-yl]-2,5-furandicarboxamide] was tested, and the IC50 (L1210 leukemia cells) was 0.012 ng/mL (≈ 0.0132 nM), the “Best T/C” value (L-1210 Leukemia) was 178 and the cures (L-1210 Leukemia) was 1.

With `Cc1c[nH]c2c(O)cc3c(c12)[C@H](CCl)CN3C(=O)c1cc2cc(NC(=O)c3ccc(C(=O)Nc4ccc5[nH]c(C(=O)N6C[C@@H](CCl)c7c6cc(O)c6[nH]cc(C)c76)cc5c4)[nH]3)ccc2[nH]1` [Compound 7, [S-(R*,R*)]-N,N′-bis[2[[1-(chloromethyl)-1,6-dihydro-5-hydroxy-8-methylbenzo[1,2-b:4,3-b′]dipyrrol-3(2H)-yl]carbonyl]-1H-indol-5-yl]-1H-pyrrole-2,5-dicarboxamide] the IC50 (L1210 leukemia cells) was 0.004 ng/mL (≈ 0.0044 nM) and the “Best T/C” value (L-1210 Leukemia) was 156.

`Cc1c[nH]c2c(O)cc3c(c12)[C@H](CCl)CN3C(=O)c1cc2cc(NC(=O)CC(=O)Nc3ccc4[nH]c(C(=O)N5C[C@@H](CCl)c6c5cc(O)c5[nH]cc(C)c65)cc4c3)ccc2[nH]1` [Compound 8, [R-(R*,S*)]-N,N′-bis[2[[1-(chloromethyl)-1,6-dihydro-5-hydroxy-8-methylbenzo[1,2-b:4,3-b′]dipyrrol-3(2H)-yl]carbonyl]-1H-indol-5-yl]-propanediamide] was tested, and the IC50 (L1210 leukemia cells) was 0.006 ng/mL (≈ 0.007 nM) and the “Best T/C” value (L-1210 Leukemia) was 194.

For `CC(=O)Oc1cc2c(c3c(C)c[nH]c13)[C@H](CCl)CN2C(=O)c1cc2cc(NC(=O)Nc3ccc4[nH]c(C(=O)N5C[C@@H](CCl)c6c5cc(OC(C)=O)c5[nH]cc(C)c65)cc4c3)ccc2[nH]1` [Compound 9, [S-(R*,R*)]-6,6′-[carbonylbis(imino-1H-indole-5,2-diylcarbonyl)bis[8-(chloromethyl)-3,6,7,8-tetrahydro-1-methyl-benzo[1,2-b:4,3-b′]dipyrrol-4-ol diacetate], the “Best T/C” value (L-1210 Leukemia) was 165.

For `Cc1c[nH]c2c(O)cc3c(c12)[C@H](CCl)CN3C(=O)c1ccc2[nH]c(C(=O)N3C[C@@H](CCl)c4c3cc(O)c3[nH]cc(C)c43)cc2c1` [Compound 10, [S-(R*,R*)]-6,6′-(1H-indole-2,5-diyldicarbonyl)bis[8-(chloromethyl)-3,6,7,8-tetrahydro-1-methyl-benzo[1,2-b:4,3-b′]dipyrrol-4-ol], the “Best T/C” value (L-1210 Leukemia) was 213 and the cures (L-1210 Leukemia) was 1.

With `Cc1c[nH]c2c(O)cc3c(c12)[C@H](CCl)CN3C(=O)c1cc2cc(NC(=O)c3ccc4[nH]c(C(=O)Nc5ccc6[nH]c(C(=O)N7C[C@@H](CCl)c8c7cc(O)c7[nH]cc(C)c87)cc6c5)cc4c3)ccc2[nH]1` [Compound 11, [S-(R*,R*)]-N,N′-bis[2-[[1-(chloromethyl)-1,6-dihydro-5-hydroxy-8-methylbenzo[1,2-b:4,3-b′]dipyrrol-3(2H)-yl]carbonyl]-1H-indol-5-yl]-1H-indole-2,5-dicarboxamide] the “Best T/C” value (L-1210 Leukemia) was 188.

For `Cc1c[nH]c2c(O)cc3c(c12)[C@H](CCl)CN3C(=O)c1cc2cc(NC(=O)c3ccc4[nH]c(C(=O)N5C[C@@H](CCl)c6c5cc(O)c5[nH]cc(C)c65)cc4c3)ccc2[nH]1` [Compound 12, [S-(R*,R*)]-2-[[1-(chloromethyl)-1,6-dihydro-5-hydroxy-8-methylbenzo[1,2-b:4,3-b′]dipyrrol-3(2H)-yl]carbonyl]-N-[3-[[1-(chloromethyl)-1,6-dihydro-5-hydroxy-8-methylbenzo[1,2-b:4,3-b′]dipyrrol-3(2H)-yl]carbonyl]-1H-indol-6-yl]-1H-indole-5-carboxamide], the “Best T/C” value (L-1210 Leukemia) was 181.

For `Cc1c[nH]c2c(O)cc3c(c12)[C@H](CCl)CN3C(=O)c1ccc2[nH]c(C(=O)Nc3ccc4[nH]c(C(=O)N5C[C@@H](CCl)c6c5cc(O)c5[nH]cc(C)c65)cc4c3)cc2c1` [Compound 13, [S-(R*,R*)]-5-[[1-(chloromethyl)-1,6-dihydro-5-hydroxy-8-methylbenzo[1,2-b:4,3-b′]dipyrrol-3(2H)-yl]-carbonyl)-N-[2-[[1-(chloromethyl)-1,6-dihydro-5-hydroxy-8-methylbenzo[1,2-b:4,3-b′]dipyrrol-3(2H)-yl]carbonyl)-1H-indol-5-yl]-1H-indole-2-carboxamide], the “Best T/C” value (L-1210 Leukemia) was 188.

`Cc1c[nH]c2c(OC(=O)C(C)(C)C)cc3c(c12)[C@H](CCl)CN3C(=O)c1cc2cc(NC(=O)Nc3ccc4[nH]c(C(=O)N5C[C@@H](CCl)c6c5cc(OC(=O)C(C)(C)C)c5[nH]cc(C)c65)cc4c3)ccc2[nH]1` [Compound 14, [S-(R*,R*)]-carbonylbis[imino-1H-indole-5,2-diylcarbonyl[1-(chloromethyl)-1,6-dihydro-8-methylbenzo[1,2-b:4,3-b′]dipyrrole-3,5(2H)-diyl]]ester, 2,2-dimethylpropanoic acid] was tested, and the “Best T/C” value (L-1210 Leukemia) was 156.
